According to article PMC11640836, “Aminomethylmorpholino Nucleosides as Novel Inhibitors of PARP1 and PARP2: Experimental and Molecular Modeling Analyses of Their Selectivity and Mechanism of Action” (International Journal of Molecular Sciences, 2024):
Read-outs that look alike come from different tables or passages of the source.

Key:
PARP1-DNA complex [1] = target: T1, PARP1-DNA complex (Homo sapiens, UniProt P09874); assay: AutoPARylation-induced dissociation of the PARP1-DNA complex (fluorescence anisotropy kinetics); format: biochemical; conditions: 120 µM H2N-Mor-T or 400 nM olaparib
T1 construct: made in house; host or cells: insect cells
T1 sequence (P09874 whole entry, one chain of several): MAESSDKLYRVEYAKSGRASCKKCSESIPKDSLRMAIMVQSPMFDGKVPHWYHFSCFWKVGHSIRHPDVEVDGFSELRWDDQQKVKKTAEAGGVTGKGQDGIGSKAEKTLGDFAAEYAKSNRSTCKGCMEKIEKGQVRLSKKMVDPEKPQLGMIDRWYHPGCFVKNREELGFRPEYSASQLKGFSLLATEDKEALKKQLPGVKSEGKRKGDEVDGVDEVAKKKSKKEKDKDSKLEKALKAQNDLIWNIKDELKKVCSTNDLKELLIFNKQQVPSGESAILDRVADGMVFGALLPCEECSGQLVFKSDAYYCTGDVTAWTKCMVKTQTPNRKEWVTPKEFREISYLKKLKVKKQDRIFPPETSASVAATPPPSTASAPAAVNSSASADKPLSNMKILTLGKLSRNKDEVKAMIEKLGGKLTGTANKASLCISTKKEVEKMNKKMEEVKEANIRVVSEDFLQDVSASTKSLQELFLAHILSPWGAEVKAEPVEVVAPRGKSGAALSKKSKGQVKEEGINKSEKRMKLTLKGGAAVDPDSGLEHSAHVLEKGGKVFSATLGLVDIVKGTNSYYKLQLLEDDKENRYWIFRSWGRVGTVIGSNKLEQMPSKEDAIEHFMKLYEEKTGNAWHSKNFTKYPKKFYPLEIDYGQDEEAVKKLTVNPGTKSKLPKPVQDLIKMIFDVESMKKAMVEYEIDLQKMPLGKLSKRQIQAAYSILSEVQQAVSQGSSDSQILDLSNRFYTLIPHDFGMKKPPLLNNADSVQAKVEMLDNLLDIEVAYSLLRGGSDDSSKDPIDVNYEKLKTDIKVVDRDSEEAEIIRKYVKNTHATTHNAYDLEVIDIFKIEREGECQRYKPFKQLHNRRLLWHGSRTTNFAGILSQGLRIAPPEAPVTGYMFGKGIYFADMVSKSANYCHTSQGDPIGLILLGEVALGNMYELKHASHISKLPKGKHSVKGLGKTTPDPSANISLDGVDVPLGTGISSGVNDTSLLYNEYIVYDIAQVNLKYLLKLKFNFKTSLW
Experimental: (§1) Fluorescence anisotropy measurements of FAM-labeled DNA were performed in the absence and presence of various concentrations of PARP1/PARP2 with or without sub-saturating concentrations of an inhibitor. […] The averaged values were used for the final plot, and EC50 values were determined with MARS Data Analysis software version 3.00 (BMG LABTECH, Ortenberg, Germany). The data were plotted (F vs. C) and fitted to a four-parameter equation, F = F0 + (F∞ − F0)/[1 + (EC50/C)^n], where F is the measured fluorescence anisotropy of a solution containing the labeled DNA at a given concentration (C) of protein, F0 is the fluorescence anisotropy of the solution of the labeled DNA alone, F∞ is the fluorescence anisotropy of the labeled DNA saturated with the protein, EC50 is the concentration of the protein where F − F0 = (F∞ − F0)/2, and n is the Hill coefficient, which denotes the slope of the nonlinear curve. The apparent rate constants (kobs values) of dissociation of the PARP1 (PARP2)-DNA complex during the PARylation reaction performed in the absence or presence of an inhibitor were estimated by fluorescence anisotropy measurements, as described previously. […] The kinetic data were fitted to an exponential curve to calculate kobs with MARS Data Analysis software. […]

PARP1-DNA complex [2] = target: T1, PARP1-DNA complex; assay: Fluorescence anisotropy titration of FAM-labeled gap-DNA with PARP1; format: binding; conditions: 120 µM inhibitor, absence vs presence
Experimental: as §1

[3] = test system: HeLa cell line (cervical cancer); assay: Cell culture cytotoxicity assay (EZ4U/MTT), compounds alone and combined with hydrogen peroxide; conditions: for Effect (H2O2 + PARP inhibitor combo) / Combination index (CI): Hela; for Combination index (CI): CompuSyn; for Combination index (CI) with H2O2, as stated in text: different concentrations of H2O2 and inhibitor, Hela cells
Experimental: The cytotoxicity of the compounds and their combinations with a DNA damaging agent were examined against human cells from the HeLa cell line (cervical cancer) using an EZ4U/MTT colorimetric test (Biomedica, Vienna, Austria). […] The cells were grown in 96-well plates in DMEM medium (Gibco, Thermo Fisher Scientific, Waltham, MA, USA), with 1x GlutaMAX (Gibco, Thermo Fisher Scientific, Waltham, MA, USA), 50 IU/mL penicillin, 50 μg/mL streptomycin (MP Biome-dicals, Santa Ana, CA, USA), and in the presence of 10% fetal bovine serum (Biolot, Saint Petersburg, Russia) in a 5% CO2 atmosphere. After the formation of a 30–50% monolayer, the tested compounds were added to the medium to final concentrations specified in Figure 2 and Figure S4, and the cell culture was monitored for 3 days. […] The combination index (CI) values were calculated using CompuSyn software version 1.0.

PARP2-DNA complex [4] = target: T2, PARP2-DNA complex (Mus musculus, UniProt O88554); assay: Fluorescence anisotropy titration of FAM-labeled gap-DNA with PARP2; format: binding, murine; conditions: 240 µM inhibitor
T2 construct: made in house; host or cells: insect cells
T2 sequence (O88554 whole entry, one chain of several): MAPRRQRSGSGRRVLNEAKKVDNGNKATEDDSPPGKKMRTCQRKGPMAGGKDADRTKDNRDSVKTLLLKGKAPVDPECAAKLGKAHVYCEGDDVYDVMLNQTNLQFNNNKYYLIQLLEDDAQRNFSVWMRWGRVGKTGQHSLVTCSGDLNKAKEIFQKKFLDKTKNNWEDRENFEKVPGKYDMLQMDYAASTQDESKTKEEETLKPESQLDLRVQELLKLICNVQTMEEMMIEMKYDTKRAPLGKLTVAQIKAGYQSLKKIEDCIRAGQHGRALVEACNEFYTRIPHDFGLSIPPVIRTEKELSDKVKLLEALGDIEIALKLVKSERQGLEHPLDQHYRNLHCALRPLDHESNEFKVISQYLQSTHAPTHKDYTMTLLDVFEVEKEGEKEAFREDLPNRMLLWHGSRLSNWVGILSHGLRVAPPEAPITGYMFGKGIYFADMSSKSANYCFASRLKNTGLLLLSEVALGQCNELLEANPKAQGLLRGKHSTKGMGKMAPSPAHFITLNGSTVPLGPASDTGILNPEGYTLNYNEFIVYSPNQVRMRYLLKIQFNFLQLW
Experimental: as §1

PARP2-DNA complex [5] = target: T2, PARP2-DNA complex; assay: AutoPARylation-induced dissociation of the PARP2-DNA complex (fluorescence anisotropy kinetics); format: biochemical, murine; conditions: 240 µM H2N-Mor-U(I) or 800 nM olaparib
Experimental: as §1

PARP2 = target: T3, PARP2 (Mus musculus, UniProt O88554); assay: Steady-state kinetic analysis of the PARP2 enzymatic reaction; format: biochemical, murine
T3 construct: made in house; host or cells: insect cells
T3 sequence (O88554 whole entry): as the sequence (O88554 whole entry, one chain of several) above
Experimental: The four efficient inhibitors of PARP1 (compounds 8, 12, 13, and 14) were further examined by detailed kinetic experiments to determine the type of inhibition and the inhibition constants. […] The kinetics experiments of the PARylation reaction were performed at varied concentrations of the NAD^+ substrate and three–four different fixed concentrations of the inhibitor. The kinetic parameters of the reaction (Vmax and KM) were calculated by fitting the Michaelis–Menten equation to the kinetic data. The type of inhibition was determined by analyzing the dependences of Vmax and KM on the concentration of the inhibitor in linearizing coordinates (Figure S3). All the compounds had decreased Vmax and increased KM values as the inhibitor concentration increased (panels A−E), indicating a mixed type of inhibition, which was further evidenced by the double reciprocal plots of kinetic data (panel F). From these experiments, the inhibition constants reflecting the affinity of inhibitors to the NAD^+ binding pocket of free enzymes were determined (Table 2).
To determine the apparent maximum rate of enzymatic reaction (Vmax), Michaelis constant (KM), and possible inhibition mechanism, steady-state kinetic experiments were performed at […] fixed concentrations of the substrate, in the absence and presence of different fixed concentrations of the inhibitor. The standard reaction mixtures (10 μL) contained 100 μM, 300 μM, 500 μM, 1 mM, or 2 mM NAD^+; a tested PARP1/PARP2 inhibitor specified for each compound (Figure S3); the recombinant human enzyme PARP1 (200 nM) or murine PARP2 (800 nM); and reaction buffer components (specified in the previous subsection). The reaction was performed as described in the previous subsection. The raw data (kinetic curves) were obtained in three independent experiments and statistically processed with OriginPro 8.6.0 software. […]
F) Graphical representation in double reciprocal plots. […]
The Ki and Ki(2) values presented in Table 2 in the main text and Table S1 were calculated using the equations: […]

[6] = H2O2 150 μM + inhibitor 1000 μM
[7] = H2O2 250 μM + inhibitor 1000 μM

Row | SMILES | Effect (H2O2 + PARP inhibitor combo) ([3]; H2O2 30 μM + inhibitor 100 μM) | Combination index (CI) ([3]; H2O2 30 μM + inhibitor 100 μM) | Effect (H2O2 + PARP inhibitor combo) ([3]; H2O2 30 μM + inhibitor 1000 μM) | Combination index (CI) ([3]; H2O2 30 μM + inhibitor 1000 μM) | Effect (H2O2 + PARP inhibitor combo) ([3]; H2O2 50 μM + inhibitor 100 μM) | Combination index (CI) ([3]; H2O2 50 μM + inhibitor 100 μM) | Effect (H2O2 + PARP inhibitor combo) ([3]; H2O2 50 μM + inhibitor 1000 μM) | Combination index (CI) ([3]; H2O2 50 μM + inhibitor 1000 μM) | Effect (H2O2 + PARP inhibitor combo) ([3]; H2O2 90 μM + inhibitor 100 μM) | Combination index (CI) ([3]; H2O2 90 μM + inhibitor 100 μM) | Effect (H2O2 + PARP inhibitor combo) ([3]; H2O2 90 μM + inhibitor 1000 μM) | Combination index (CI) ([3]; H2O2 90 μM + inhibitor 1000 μM) | Effect (H2O2 + PARP inhibitor combo) ([3]; H2O2 150 μM + inhibitor 100 μM) | Combination index (CI) ([3]; H2O2 150 μM + inhibitor 100 μM) | Effect (H2O2 + PARP inhibitor combo) [3, 6] | Combination index (CI) [3, 6] | Effect (H2O2 + PARP inhibitor combo) ([3]; H2O2 250 μM + inhibitor 100 μM) | Combination index (CI) ([3]; H2O2 250 μM + inhibitor 100 μM) | Effect (H2O2 + PARP inhibitor combo) [3, 7] | Combination index (CI) [3, 7] | further results
1 | Cc1cn([C@H]2CNC[C@@H](CN)O2)c(=O)[nH]c1=O [Compound 8] | 0.15 | 2.596 | 0.46 | 0.6254 | 0.21 | 1.707 | 0.59 | 0.2634 | 0.48 | 0.375 | 0.68 | 0.1724 | 0.61 | 0.2716 | 0.79 | 0.09406 | 0.94 | 0.01519 | 0.92 | 0.02575 | Inhibition of dissociation of the PARP1 complex with DNA (PARP1-DNA complex [1]; 0.4 mM NAD+): ~ 2 fold; Inhibition of dissociation of the PARP1 complex with DNA (PARP1-DNA complex [1]; 1.4 mM NAD+): ~ 1.5 fold; Effect of inhibitor on EC50 of the PARP1–DNA complex (PARP1-DNA complex [2]): almost the same; Combination index (CI) with H2O2, as stated in text [3]: less than one
2 | NC[C@@H]1CNC[C@H](n2cc(I)c(=O)[nH]c2=O)O1 [Compound 14] | 0.46 | 0.6331 | 0.3 | 0.3003 | 0.47 | 0.5789 | 0.32 | 0.2452 | 0.6 | 0.1778 | 0.5 | 0.04618 | 0.68 | 0.08158 | 0.61 | 0.01767 | 0.82 | 0.01487 | 0.84 | 0.00135 | Effect of inhibitor on the stability of the PARP2–DNA complex (PARP2-DNA complex [4]): No statistically significant effect; Inhibition of dissociation of the PARP2 complex with DNA (PARP2-DNA complex [5]; 0.4 mM NAD+): ~ 2 fold; Inhibition of dissociation of the PARP2 complex with DNA (PARP2-DNA complex [5]; 1.4 mM NAD+): ~ 1.5 fold; Type of inhibition (PARP2; Vmax decreased, KM increased): mixed-type inhibition; Ki (PARP2; mixed-type inhibition, read-out: Ki (affinity for the free enzyme)): 120 ± 23 µM; Ki (PARP2; read-out: Ki(2) (affinity for the enzyme complex with NAD+ substrate)): 400 ± 70 µM; Combination index (CI) with H2O2, as stated in text [3]: less than one
